This passage reports IC50 results from patent EP4227307A1 (Genzyme Corporation, priority 2022, dated 2023).

pIC50: −log10 of the molar value. Where a name gives a salt, the structure may show the parent alone. Some results are limits rather than exact numbers.

The target in the assay is T1, human recombinant 6His-Nterm SHP2 full-length (Thr2-Arg593) (Homo sapiens, UniProt Q06124).
T1 construct: 6His-Nterm SHP2 full-length (Thr2-Arg593, R&D system); 6His (N); purchased R&D system
T1 sequence (Q06124 2-593): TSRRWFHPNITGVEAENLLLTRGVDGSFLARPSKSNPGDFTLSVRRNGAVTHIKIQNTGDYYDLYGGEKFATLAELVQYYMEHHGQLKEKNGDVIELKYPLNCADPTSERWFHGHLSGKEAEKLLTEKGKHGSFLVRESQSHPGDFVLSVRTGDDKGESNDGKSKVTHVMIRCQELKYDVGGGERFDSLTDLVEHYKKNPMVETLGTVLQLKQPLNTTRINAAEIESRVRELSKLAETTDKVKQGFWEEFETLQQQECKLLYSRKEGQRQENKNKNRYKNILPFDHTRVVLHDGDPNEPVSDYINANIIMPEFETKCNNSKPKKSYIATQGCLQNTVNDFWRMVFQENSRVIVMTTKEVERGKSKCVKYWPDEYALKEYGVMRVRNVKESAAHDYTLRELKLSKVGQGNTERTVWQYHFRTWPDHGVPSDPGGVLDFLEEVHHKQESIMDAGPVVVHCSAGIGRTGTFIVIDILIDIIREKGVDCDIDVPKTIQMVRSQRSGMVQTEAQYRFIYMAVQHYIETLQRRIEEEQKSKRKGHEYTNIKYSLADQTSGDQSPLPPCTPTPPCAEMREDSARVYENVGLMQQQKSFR
The experiment in a line: SHP2 Phosphatase Assay (DiFMUP fluorescence). The settings on record: SHP2 0.2 nM pre-incubated with 100 nM bi-phosphorylated activating peptide; compound 1000-0.05 nM, 30 min pre-incubation; DiFMUP 20 µM, 45 min, room temperature; 10-concentration dose-response. Type of assay: biochemical. The protocol: Inhibition of SHP2 phosphatase activity was evaluated using human recombinant 6His-Nterm SHP2 full-length (Thr2-Arg593, R&D system), NsCs bi-phosphorylated activating peptide (NH2-LN(pY)AQLWHA(PEG8)LTI(pY)ATIRRF-Amide.acetate, Thermofischer Scientific) and DiFMUP as surrogate phosphatase substrate (Molecular Probes). All reactions were performed at room temperature in 384-well black polystyrene non-binding plate (Corning) with the assay buffer (50 mM HEPES-NaOH pH 7.2, 100 mM NaCl, 0.5 mM EDTA, 0.001% Brij35 including 0.02% BSA and 1 mM DTT added extemporaneously). SHP2 was pre-incubated at least 10 min with the activating peptide (0.2 nM and 100 nM, respectively). 10 µL of this mixture was added to the assay plate, that already contained 15 nL of the compound (1000-0.05 nM). After 30 min pre-incubation, the enzymatic reaction was initiated by the addition of 5 µL DiFMUP in assay buffer without BSA (20 µM). The reaction was stopped by the addition of 15 µL sodium pervanadate solution (100 µM) after 45 min incubation. The fluorescence signal was measured at excitation and emission wavelengths of 350 nm and 450 nm, respectively, using a Pherastar instrument (BMG-LabTech). Percentage of inhibition […] were calculated from the fluorescence signal at 450 nm of the positive and negative control using the following formula: I% = ((signal Max−signal Sample)/(signal Max−signal Min control)) × 100 [formula]
Positive control (Max): corresponds to the maximum fluorescence signal obtained in the presence of 15 nL DMSO replacing the inhibitor in the pre-incubation step.
Negative control (Min): corresponds to the minimum signal obtained in the presence of 1 µM of RMC-4550, the structure of which is shown below: [drawing 464]
The IC50 were then calculated from a dose-response curve of 10 concentrations of tested compound using the 4-parameter logistic model: I% = A + (C)/(1 + exp(−B×log(X)−M)) [formula]
The parameters A and (A+C) are the lower and upper limits, B is the slope of the curve at the inflexion point, M parameter is the logarithm of the abscissa at the inflexion point, and X is the concentration of compound.
Consider `Cc1cnc2c(c1)[C@@H](N)C1(CCN(c3nc(C)c(-c4ccccc4F)n4nccc34)CC1)C2` [Compound 8, (5S)-1'-[7-(2-fluorophenyl)-6-methyl-pyrazolo[1,5-a]pyrazin-4-yl]-3-methyl-spiro[5,7-dihydrocyclopenta[b]pyridine-6,4'-piperidine] -5-amine], for which the negative logarithm of the IC50 (pIC50) is 8.22.

Regarding `N[C@@H]1c2cccnc2CC12CCN(c1ncc(-c3ccc(F)c4cc[nH]c34)n3nccc13)CC2` [Compound 89, (5S)-1'-[7-(4-fluoro-1H-indol-7-yl)pyrazolo[1,5-a]pyrazin-4-yl]spiro[5,7-dihydrocyclopenta[b]pyridine-6,4'-piperidine] -5-amine hydrochloride], the pIC50 was 8.05.

On to `Cc1nc(N2CCC3(CC2)Cc2ncccc2[C@H]3N)c2ccnn2c1-c1ccn(C)c(=O)c1F` [Compound 228, 4-[4-[(5S)-5-aminospiro[5,7-dihydrocyclopenta[b]pyridine-6,4'-piperidine]-1'-yl]-6-methyl-pyrazolo[1,5-a]pyrazin-7-yl]-3-fluoro-1-methyl-pyridin-2-one], for which the negative-log IC50 (pIC50) was 7.07.

With `Cc1nc(N2CCC3(CC2)Cc2ncc(F)cc2[C@H]3N)c2ccnn2c1-c1ccc2nccnc2c1Cl` [Compound 79, (5S)-1'-[7-(5-chloroquinoxalin-6-yl)-6-methyl-pyrazolo[1,5-a]pyrazin-4-yl]-3-fluoro-spiro[5,7-dihydrocyclopenta[b]pyridine-6,4'-piperidine]-5-amine hydrochloride], the pIC50 is 8.00.

In the case of `COc1ccc2c(n1)[C@H](N)C1(CCN(c3nc(C)c(-c4cccc(F)c4F)n4nccc34)CC1)C2` [Compound 214, (7R)-1'-[7-(2,3-difluorophenyl)-6-methyl-pyrazolo [1,5-a]pyrazin-4-yl]-2-methoxy-spiro[5,7-dihydrocyclopenta[b]pyridine-6,4'-piperidine]-7-amine], the pIC50 is 6.23.

On to `Cc1nc(N2CCC3(CC2)Cc2ncccc2[C@H]3N)c2ccnn2c1-c1cccn(C)c1=O` [Compound 227, 3-[4-[(5S)-5-aminospiro[5,7-dihydrocyclopenta[b]pyridine-6,4'-piperidine]-1'-yl]-6-methyl-pyrazolo[1,5-a]pyrazin-7-yl]-1-methyl-pyridin-2-one], for which the negative logarithm of the IC50 (pIC50) is less than 6.00.

`COc1c(F)cccc1-c1c(C)nc(N2CCC3(CC2)Cc2ncccc2[C@H]3N)c2ccnn12` [Compound 200]: the pIC50 was 7.36.

With `Cc1nc(N2CCC3(CC2)Cc2ccc(C#N)cc2[C@H]3N)c2ccnn2c1-c1cnn(C)c1C` (single isomer, unassigned) [Compound 211], the negative-log IC50 (pIC50) was 8.10.

With `Cc1nc(N2CCC3(CC2)Cc2ncccc2[C@H]3N)c2ccnn2c1-c1cc(C(=O)N(C)C)ccc1F` [Compound 172, 4-fluoro-N,N-dimethyl-3-[6-methyl-4-[(5S)-5-aminospiro[5,7-dihydrocyclopenta[b]pyridine-6,4'-piperidine]-1'-yl]pyrazolo[1,5-a]pyrazin-7-yl]benzamide], the pIC50 is less than 6.00.

Take `Cc1nccc(-c2c(C)nc(N3CCC4(CC3)Cc3c(F)cccc3[C@H]4N)c3ccnn23)c1Cl` [Compound 92, (1S)-1'-[7-(3-chloro-2-methyl-4-pyridyl)-6-methyl-pyrazolo[1,5-a]pyrazin-4-yl]-4-fluoro-spiro[indane-2,4'-piperidine]-1-amine formate]: the pIC50 is 8.10.

Consider `Cc1nc(N2CCC3(CC2)Cc2ncccc2[C@H]3N)c2ccnn2c1-c1cccs1` [Compound 99, (5S)-1'-[6-methyl-7-(2-thienyl)pyrazolo[1,5-a]pyrazin-4-yl]spiro [5,7-dihydrocyclopenta[b]pyridine-6,4'-piperidine]-5-amine hydrochloride], for which the pIC50 is 8.05.

As to `Cc1nc(N2CCC3(CC2)Cc2ncccc2[C@H]3N)c2ccnn2c1-c1ccc(F)cc1F` [Compound 193, (5S)-1'-[7-(2,4-difluorophenyl)-6-methyl-pyrazolo[1,5-a]pyrazin-4-yl]spiro[5,7-dihydrocyclopenta[b]pyridine-6,4'-piperidine]-5-amine], the pIC50 was 8.52.

With `Cc1nccc(-c2c(C)nc(N3CCC4(CC3)[C@H](N)c3ccccc3N4C)c3ccnn23)c1Cl` [Compound 156, (3R)-1'-[7-(3-chloro-2-methyl-4-pyridyl)-6-methyl-pyrazolo[1,5-a]pyrazin-4-yl]-1-methyl-spiro[indoline-2,4'-piperidine]-3-amine], the pIC50 was 7.46.

Regarding `COc1cccc2c1CC1(CCN(c3nc(C)c(-c4ccccc4F)n4nccc34)CC1)[C@@H]2N` [Compound 109, (1S)-1'-[7-(2-fluorophenyl)-6-methyl-pyrazolo[1,5-a]pyrazin-4-yl] -4-methoxy-spiro[indane-2,4'-piperidine]-1-amine], the negative logarithm of the IC50 (pIC50) is 8.00.

As to `Cc1nccc(Sc2c(C)nc(N3CCC4(CC3)Cc3ncccc3[C@H]4N)c3ccnn23)c1Cl` [Compound 231, (S)-1'-(7-((3-chloro-2-methylpyridin-4-yl)thio)-6-methylpyrazolo[1,5-a]pyrazin-4-yl)-5,7-dihydrospiro[cyclopenta[b]pyridine-6,4'-piperidin]-5-amine], the pIC50 was 8.10.

Turning to `COc1cc2c(cn1)CC1(CCN(c3nc(C)c(-c4ccnc(C)c4Cl)n4nccc34)CC1)[C@@H]2N` [Compound 137, (5S)-1'-[7-(3-chloro-2-methyl-4-pyridyl)-6-methyl-pyrazolo[1,5-a]pyrazin-4-yl]-3-methoxy-spiro[5,7-dihydrocyclopenta[c]pyridine-6,4'-piperidine]-5-amine], the pIC50 is 8.22.

Consider `Cc1nc(N2CCC3(CC2)Cc2ncccc2[C@H]3N)c2ccnn2c1-c1cccc(C#N)c1F` [Compound 181, 2-fluoro-3-[6-methyl-4-[(5S)-5-aminospiro[5,7-dihydrocyclopenta[b]pyridine-6,4'-piperidine]-1'-yl]pyrazolo[1,5-a]pyrazin-7-yl]benzonitrile], for which the negative logarithm of the IC50 (pIC50) is 8.30.

Consider `Cc1nc(N2CCC3(CC2)Cc2c(F)cccc2[C@H]3N)c2ccnn2c1-c1cnn2ccccc12` [Compound 96, (1S)-4-fluoro-1'-(6-methyl-7-pyrazolo[1,5-a]pyridin-3-yl-pyrazolo[1,5-a]pyrazin-4-yl)spiro[indane-2,4'-piperidine]-1-amine formate], for which the pIC50 was 7.96.

Regarding `Cc1nc(N2CCC3(CC2)Cc2ncccc2[C@H]3N)c2c(F)cnn2c1-c1ccccc1F` [Compound 142, (5S)-1'-[3-fluoro-7-(2-fluorophenyl)-6-methyl-pyrazolo [1,5-a]pyrazin-4-yl]spiro[5,7-dihydrocyclopenta[b]pyridine-6,4'-piperidine]-5-amine hydrochloride], the pIC50 is 7.59.

For `COc1ccc2c(n1)[C@@H](N)C1(CCN(c3nc(C)c(-c4cccc(F)c4Cl)n4nccc34)CC1)C2` [Compound 215, (7S)-1'-[7-(2-chloro-3-fluoro-phenyl)-6-methyl-pyrazolo[1,5-a]pyrazin-4-yl]-2-methoxy-spiro[5,7-dihydrocyclopenta[b]pyridine-6,4'-piperidine]-7-amine], the pIC50 was 7.64.

Consider `Cc1nc2c(s1)CC1(CCN(c3nc(C)c(-c4ccccc4F)n4nccc34)CC1)[C@@H]2N` [Compound 104, (4S)-1'-[7-(2-fluorophenyl)-6-methyl-pyrazolo[1,5-a]pyrazin-4-yl]-2-methyl-spiro[4,6-dihydrocyclopenta[d]thiazole-5,4'-piperidine]-4-amine hydrochloride], for which the negative-log IC50 (pIC50) was 8.05.
